According to the NIST ThermoML archive (doi:10.1016/j.jct.2015.09.004):

Tests used:
[1] = for vapor or sublimation pressure: Closed cell (Static) method; for Normal melting temperature: DTA
[2] = Molar enthalpy of transition or fusion; conditions: Crystal; DSC

CC(=O)c1ccc(F)cc1 [1-(4-fluorophenyl)ethanone]
[1]
Conditions	vapor or sublimation pressure [kPa]
255.13 K, Metastable liquid	0.00086
256.87 K, Metastable liquid	0.00104
258.79 K, Metastable liquid	0.00128
260.76 K, Metastable liquid	0.00157
262.72 K, Metastable liquid	0.00193
264.7 K, Metastable liquid	0.00233
266.63 K, Metastable liquid	0.00285
268.62 K, Metastable liquid	0.00348
270.62 K, Liquid	0.00417
272.54 K, Liquid	0.00501
274.51 K, Liquid	0.00603
276.49 K, Liquid	0.00725
278.49 K, Liquid	0.00865
280.5 K, Liquid	0.01035
282.42 K, Liquid	0.01227
284.44 K, Liquid	0.01455
286.42 K, Liquid	0.01723
288.39 K, Liquid	0.02022
290.38 K, Liquid	0.02379
292.34 K, Liquid	0.02795
294.31 K, Liquid	0.03279
296.34 K, Liquid	0.03807
298.27 K, Liquid	0.04465
300.3 K, Liquid	0.05171
302.24 K, Liquid	0.06005
304.2 K, Liquid	0.06895
306.15 K, Liquid	0.07985
308.16 K, Liquid	0.09146
310.15 K, Liquid	0.1056

Conditions	Normal melting temperature [°C]
[1], Crystal	-4

Conditions	Molar enthalpy of transition or fusion [kcal/mol]
[2]	3.39

CC(=O)c1ccc(Br)cc1 [4'-bromoacetophenone]
[1]
Conditions	vapor or sublimation pressure [kPa]
295.3 K, Crystal	0.00115
297.26 K, Crystal	0.00142
299.2 K, Crystal	0.00175
301.22 K, Crystal	0.00219
303.17 K, Crystal	0.00269
305.12 K, Crystal	0.00341
305.14 K, Metastable liquid	0.00501
307.11 K, Crystal	0.00418
307.13 K, Metastable liquid	0.00591
309.13 K, Crystal	0.00512
309.14 K, Metastable liquid	0.00699
311.05 K, Crystal	0.00632
311.08 K, Metastable liquid	0.0082
312.97 K, Metastable liquid	0.00953
313.08 K, Crystal	0.00777
315.05 K, Crystal	0.00949
315.06 K, Metastable liquid	0.01125
317.04 K, Crystal	0.01155
317.08 K, Metastable liquid	0.01318
319.04 K, Crystal	0.0141
319.06 K, Metastable liquid	0.01542
321.03 K, Metastable liquid	0.01778
322.97 K, Metastable liquid	0.02065
324.98 K, Metastable liquid	0.02389
327.07 K, Liquid	0.02782
328.92 K, Liquid	0.03179
331.01 K, Liquid	0.03679
333 K, Liquid	0.04238
334.94 K, Liquid	0.04849
336.95 K, Liquid	0.05561
338.92 K, Liquid	0.06344
340.91 K, Liquid	0.07228
342.92 K, Liquid	0.08249
344.85 K, Liquid	0.09385
346.83 K, Liquid	0.1056
348.79 K, Liquid	0.1197
350.66 K, Liquid	0.1346
352.73 K, Liquid	0.1529
354.58 K, Liquid	0.1698
356.66 K, Liquid	0.1927
358.51 K, Liquid	0.2158
360.62 K, Liquid	0.2427
362.46 K, Liquid	0.27
364.54 K, Liquid	0.3031
366.57 K, Liquid	0.3388
368.54 K, Liquid	0.3774
370.53 K, Liquid	0.4201
372.5 K, Liquid	0.4659
374.46 K, Liquid	0.5142
376.43 K, Liquid	0.5712
378.39 K, Liquid	0.6312

Conditions	Normal melting temperature [°C]
[1], Crystal	51.1

Conditions	Molar enthalpy of transition or fusion [kcal/mol]
[2]	4.57

CC(=O)c1ccc(Cl)cc1 [4'-chloroacetophenone]
[1]
Conditions	vapor or sublimation pressure [kPa]
271.56 K, Metastable liquid	0.00065
273.59 K, Metastable liquid	0.00081
275.52 K, Metastable liquid	0.00098
277.47 K, Metastable liquid	0.00118
279.48 K, Metastable liquid	0.00144
281.51 K, Metastable liquid	0.00176
283.42 K, Metastable liquid	0.0021
285.45 K, Metastable liquid	0.00256
287.39 K, Metastable liquid	0.00305
289.34 K, Metastable liquid	0.00364
291.32 K, Liquid	0.00437
293.32 K, Liquid	0.00519
295.29 K, Liquid	0.00616
297.26 K, Liquid	0.00729
299.24 K, Liquid	0.00863
301.19 K, Liquid	0.01012
303.21 K, Liquid	0.01198
305.16 K, Liquid	0.01396
307.18 K, Liquid	0.01629
309.12 K, Liquid	0.01902
311.1 K, Liquid	0.02236
313.1 K, Liquid	0.02596
315.07 K, Liquid	0.03015
317.04 K, Liquid	0.03486
319.07 K, Liquid	0.04049
321 K, Liquid	0.04613
323.09 K, Liquid	0.05334
325.1 K, Liquid	0.0612
327.08 K, Liquid	0.06999
329.05 K, Liquid	0.07991
331.04 K, Liquid	0.09133
333 K, Liquid	0.1037
334.98 K, Liquid	0.1174

Conditions	Normal melting temperature [°C]
[1], Crystal	17.2

Conditions	Molar enthalpy of transition or fusion [kcal/mol]
[2]	3.66

CC(=O)c1ccc(I)cc1 [para-iodoacetophenone]
[1]
Conditions	vapor or sublimation pressure [kPa]
313.07 K, Crystal	0.00086
315.1 K, Crystal	0.00108
317.07 K, Crystal	0.00134
319.04 K, Crystal	0.00166
321.02 K, Crystal	0.00205
323.02 K, Crystal	0.00253
325.06 K, Crystal	0.00313
326.98 K, Crystal	0.00382
329.06 K, Crystal	0.00477
330.99 K, Crystal	0.00578
333.01 K, Crystal	0.0071
334.95 K, Crystal	0.00856
336.96 K, Crystal	0.01043
338.87 K, Crystal	0.01256
340.91 K, Crystal	0.01528
342.83 K, Crystal	0.01834
344.76 K, Crystal	0.02192
346.73 K, Crystal	0.02634
348.73 K, Crystal	0.03176
348.73 K, Metastable liquid	0.03831
350.7 K, Metastable liquid	0.04337
350.71 K, Crystal	0.03795
352.69 K, Metastable liquid	0.04939
352.75 K, Crystal	0.04537
354.68 K, Metastable liquid	0.05596
356.62 K, Metastable liquid	0.06332
358.92 K, Liquid	0.07293
360.65 K, Liquid	0.08166
362.51 K, Liquid	0.09128
364.59 K, Liquid	0.1048
366.58 K, Liquid	0.1171
368.51 K, Liquid	0.131
370.52 K, Liquid	0.1458
372.41 K, Liquid	0.1634
374.48 K, Liquid	0.1829
376.36 K, Liquid	0.2045
378.41 K, Liquid	0.2281
380.39 K, Liquid	0.2553
382.37 K, Liquid	0.2831
384.3 K, Liquid	0.3146
386.31 K, Liquid	0.3478
388.27 K, Liquid	0.3882
389.83 K, Liquid	0.42
392.22 K, Liquid	0.4723
394.17 K, Liquid	0.5188
396.15 K, Liquid	0.5726
398.12 K, Liquid	0.6279
399.98 K, Liquid	0.6883
402.04 K, Liquid	0.7599

Conditions	Normal melting temperature [°C]
[1], Crystal	84.5

Conditions	Molar enthalpy of transition or fusion [kcal/mol]
[2]	5.62
